The record followed here is patent US20210403415A1, “COMPOUNDS AND METHODS TO ATTENUATE TUMOR PROGRESSION AND METASTASIS” (THE TRUSTEES OF INDIANA UNIVERSITY, priority 2018, published 2021).

As a reminder, the kinact is the maximal first-order rate at which the target is inactivated. For orientation: EC50 means the concentration at which the effect is half-maximal.

Test [1] deals with T1, TEAD4.Yap1 interaction (Homo sapiens, UniProt Q15561). Briefly: Fluorescence polarization, GST-TEAD4 with FAM-Yap60-99 peptide. In kind it is binding. Set-up: TEAD4 (217-434), TEAD4 (217-434) Cys367Ser mutant and Yap1 (Full-length) were expressed as GST-fusion proteins; made in house; host or cells: E. coli BL-21 (DE3), pGEX-6P-1. The following applies: for inhibition / maximum inhibition of TEAD4.Yap1 interaction: 24 h incubation at 4° C.; for t1/2^∞ (half-life of inactivation): corresponding to kinact; for inhibition of TEAD4.Yap1 interaction: FP assay, 24 h at 4° C. The procedure:
(§1) GST-TEAD4, GST-TEAD4 Cys367Ser mutant or HIS-TEAD2 interaction with Yap1 was investigated using a fluorescently-labeled peptide (FAM-Yap60-99), consisting of FAM-labeled TEAD-binding peptide fragment of Yap1 (FAM-[…] TVPMCLRKLPASFCKPP), which has a disulfide bridge (American Peptide, Sunnyvale, Calif.). Addition of FAM-Yap60-99 to the TEAD was followed by measurement of changes in polarization. 40 μL of 125 nM GST-TEAD4 WT or GST-TEAD4 Cys367Ser in assay buffer (PBS with 0.01% v/v Triton-X100) or 40 μL of 64 nM HIS-TEAD2 was added to a 384-well black polystyrene plate (Cat. No. 262260; Nunc, Roskilde, Denmark) and incubated with 5 μL of […] serially diluted compounds in assay buffer supplemented with 20% v/v DMSO for 24 h at 4° C. Finally, 5 μL of 160 nM FAM-Yap60-99 peptide was added, the plate centrifuged, and the polarization was measured on an Envision Multilabel Plate Reader (PerkinElmer, Waltham, Mass.) using a filter set with excitation and emission wavelengths of 485 and 535 nm, respectively. Percent inhibition was calculated as relative to a minimum inhibition control, which is without compound, and a maximum inhibition control, which is without a TEAD.
For the determination of the inhibition efficiency kinact/K1, the protein compound incubation time was varied between […], prior to the addition of the FAM-Yap60-99 peptide and fluorescence polarization measurements. The progressive decrease in TEAD activities were plotted against time for all 10 concentrations ([…]) of the compounds and the observed rate of inhibition (kobs) was calculated by fitting a simple exponential function.
The observed rate of inhibition was then plotted against the concentration of the compound and a […] function kobs=kinact[Inhibitor]/K1+[Inhibitor] was fitted to determine the kinact and K1 values.
A general note: Polarisation of emitted light reports the rotation of a fluorescent probe.

In test [2] the target is T1, TEAD4.Yap1 interaction. The description is as above. The class given is binding. Set-up: TEAD4 (217-434), TEAD4 (217-434) Cys367Ser mutant and Yap1 (Full-length) were expressed as GST-fusion proteins; made in house; host or cells: E. coli BL-21 (DE3), pGEX-6P-1. The following applies: 0.5, 6, 24, 48 h incubation at 4° C., 0.1-100 μM.
The target of a further test is T2, TEAD2 binding to Yap1 (Homo sapiens, UniProt Q15562).
T2 construct: TEAD2 (217-447) was expressed as N-terminal HIS-fusion protein; made in house; host or cells: E. coli BL-21 (DE3), pET-28a
In words: Fluorescence polarization, HIS-TEAD2 with FAM-Yap60-99 peptide. The settings on record: 24 h at 4° C. The procedure:
as §1

A further test concerns the target TEAD4 (Homo sapiens, UniProt Q15561). Briefly: Whole protein ESI mass spectrometry, adduct formation. The class given is binding. Set-up: TEAD4 (217-434), TEAD4 (217-434) Cys367Ser mutant and Yap1 (Full-length) were expressed as GST-fusion proteins; GST (N, cleaved yes); made in house; host or cells: E. coli BL-21 (DE3), pGEX-6P-1. The settings on record: for covalent adduct formation with TEAD4 / adduct with TEAD4: 10 μM TEAD4, 200 μM compound, 24 h at 4° C. As for the experimental part: (§2) The samples were centrifuged at 20,000×g for […] to remove precipitants before being injected into an empty column on an Agilent 1200 liquid chromatography system (Agilent, Santa Clara, Calif.), using 80% Buffer A (H2O, 5 mM NH4OAc) and 20% Buffer B (ACN, 5 mM NH4OAc), and the masses were detected on an Agilent 6520 Accurate Mass Q-TOF.
It was determined whether a covalent bond formed between inventive compounds and TEAD4. […] The covalent adduct formation by compound 2 was relatively fast (FIG. 3G), reaching nearly 100% adduct formation after 30 min incubation with TEAD4. Because the rate of inhibition developed over a longer timescale (FIG. 3C), compound 2 is proposed to induce a slow conformational change in TEAD4 that prevents its interaction with Yap1. To rule out the possibility that compound 2 induces slow aggregation of TEAD4, and not the proposed slow conformational change, GST-TEAD4 was incubated with DMSO compound 2 for 24 h at 4° C., followed by injection into an SEC column (FIG. 3H). […] A slight increase in dimer formation for the TEAD4 sample incubated with compound 2 occurred compared to the sample incubated with DMSO. […] Furthermore, it is highly unlikely that Cys-367 oxidation was responsible for the lack of 100% inhibition at longer times since it has been shown that covalent bond formation is rapid and complete within less than an hour.

For test [3], the system named is patient-derived GBM43 glioblastoma spheroids. In words: GBM43 spheroid viability (Alamar blue). The class given is cell-based, human. The following applies: Homo sapiens; three-dimensional spheroids; read-out: EC50, inhibition of GBM43 spheroid growth. As for the experimental part:
Early-passage GBM43 cells were cultured in ultralow adherence plates (Corning Inc.) at 1 to 2×10^3 cells/mL in DMEM supplemented with 1% […] (Invitrogen), 2% B27 (Invitrogen), 25 ng/mL epidermal growth factor (EGF, 25 ng/mL fibroblast growth factor (FGF) (R&D Systems, Inc.), […], 2 ng/mL platelet growth factor, and 100 ng/mL each of penicillin and streptomycin (Invitrogen Inc.). Individual cells were recovered from spheres by incubation with Accutase (Sigma-Aldrich) for 10-15 minutes. Cells (50-100/well) were then seeded in fresh sphere-forming media in 96-well plates. After 2-3 days, Neurospheres containing 6 to 8 cells were treated with compounds 1, 2, and 5.
HEK-293 were cultured in DMEM with glutamine (Cellgro, Manassas, Va.) supplemented with 10% FBS and 1% penicillin/streptomycin in a 5% CO2 atmosphere at 37° C. Tumors were expanded by passage in the flank of NOD/SCIDγnull mice. To generate GBM43 cell lines, tumors were harvested, disaggregated, and maintained in 2.5% FBS for 14 days on Matrigel-coated plates (BD Biosciences) to remove murine fibroblasts. In-vitro GBM43 cell lines were propagated in DMEM with 10% FBS for no more than 7 passages. Cell line identity was confirmed by DNA fingerprint analysis (IDEXX BioResearch) for species and baseline short-tandem repeat analysis testing. GBM43 spheroids were generated by plating early-passage cells at 2.5×10^4 cells per well in 96-well ultralow attachment plates (Corning Inc.) in DMEM/F12 (1:1; GIBCO) supplemented with 2% B27 supplement (GIBCO), 20 ng/mL epidermal growth factor (EGF), and 20 ng/mL fibroblast growth factor (FGF) (Peprotech) for 2 days. The spheroids were then treated with compounds 1, 2, and 5 and growth analyzed by Alamar blue staining.
In general terms: Alamar Blue is a resazurin reagent that responds to reducing activity.

A further test has as its target T3, TEAD4 Cys367Ser mutant (Homo sapiens, UniProt Q15561, C367S).
T3 construct: TEAD4 (217-434) Cys367Ser mutant and Yap1 (Full-length) were expressed as GST-fusion proteins; made in house; host or cells: E. coli BL-21 (DE3), pGEX-6P-1
In words: Whole protein ESI mass spectrometry, adduct formation with mutant. In kind it is binding. The following applies: 5 μM mutant, 12.5, 50, 200 μM at 4° C., 24 h. The procedure:
as §2
FIG. 4A illustrates analysis by ESI mass spectrometry after 10 μM TEAD4 Cys367Ser mutant was incubated with 200 μM compound for 24 h at 4° C. FIG. 4B illustrates measurement of fluorescence polarization due to binding when increasing concentration of TEAD4 Cys367Ser mutant was mixed with 16 nM FAM-Yap60-99 peptide (mean±s.d.; n=3). FIG. 4C illustrates measurement of fluorescence polarization due to binding when TEAD4 Cys367Ser mutant was incubated with increasing concentration of compounds for 24 h at 4° C. followed by addition of FAM-Yap60-99 (mean±s.d.; n=3).

Where [4] appears, read: as tested described herein, read-out: EC50 in the EC50 assay.

Read-outs that look alike come from different tables or passages of the source.

TEAD4, sequence (Q15561 217-434): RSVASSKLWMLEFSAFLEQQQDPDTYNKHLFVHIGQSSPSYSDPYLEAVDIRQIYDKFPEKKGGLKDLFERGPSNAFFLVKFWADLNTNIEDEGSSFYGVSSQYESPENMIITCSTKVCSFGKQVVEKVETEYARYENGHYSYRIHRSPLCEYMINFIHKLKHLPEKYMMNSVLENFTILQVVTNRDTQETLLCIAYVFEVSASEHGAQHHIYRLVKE
T1 sequence (Q15561 217-434): as above
T2 sequence (Q15562 217-447): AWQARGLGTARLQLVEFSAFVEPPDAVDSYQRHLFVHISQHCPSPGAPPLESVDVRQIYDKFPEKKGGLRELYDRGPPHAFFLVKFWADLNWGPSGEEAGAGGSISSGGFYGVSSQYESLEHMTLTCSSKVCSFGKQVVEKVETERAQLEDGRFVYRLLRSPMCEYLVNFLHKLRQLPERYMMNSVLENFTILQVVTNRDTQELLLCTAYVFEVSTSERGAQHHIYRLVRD
T3 sequence (Q15561 217-434 C367S): as the sequence (Q15561 217-434) above, with C151S counted along it

Consider `COCCOc1cccc(Nc2ccccc2C(=O)CCl)c1` [Compound 4, 2-chloro-1-(2-((3-(2-methoxyethoxy)phenyl)amino)phenyl)ethanone], for which, on TEAD4.Yap1 interaction [1], the “inhibition / maximum inhibition of TEAD4.Yap1 interaction” value worked out at 31% and the “t1/2^∞ (half-life of inactivation)” value came to 67.3 h. The “apparent EC50, inhibition of TEAD4.Yap1 protein-protein interaction” value at TEAD4.Yap1 interaction [1] (24 h incubation with TEAD4 at 4° C.) is reported as “substantially lower (nearly an order of magnitude) than its parent compound 2”. Besides, at TEAD4.Yap1 interaction [2] (read-out: maximum rate of inactivation (kinact) (converted)), the kinact was 2.78e-06 s⁻¹. In addition, the “inhibition of TEAD2 binding to Yap1” value on TEAD2 binding to Yap1 is “much weaker inhibitors of TEAD2 compared to TEAD4”. Besides, the “covalent adduct formation with TEAD4” value at TEAD4 is “formed single adducts”.
As to `COc1ccc(C(=O)CCl)c(Nc2cccc(C(F)(F)F)c2)c1` [Compound 6, 2-chloro-1-(4-methoxy-2-((3-(trifluoromethyl)phenyl)amino)phenyl)ethanone], at TEAD4.Yap1 interaction [1], the “inhibition / maximum inhibition of TEAD4.Yap1 interaction” value was found to be 51% and the “t1/2^∞ (half-life of inactivation)” value came to 20 h. The EC50 at TEAD4.Yap1 interaction [1] (24 h incubation with TEAD4 at 4° C., read-out: apparent EC50, inhibition of TEAD4.Yap1 protein-protein interaction) came out at 2.3 ± 0.8 µM. Also, the kinact on TEAD4.Yap1 interaction [2] (read-out: rate of inactivation kinact (converted)) is 9.44e-06 s⁻¹. Moreover, at TEAD2 binding to Yap1, the “inhibition of TEAD2 binding to Yap1” value is given as “much weaker inhibitors of TEAD2 compared to TEAD4”. Moreover, the “covalent adduct formation with TEAD4” value on TEAD4 is listed as “formed single adducts”.
Turning to `O=C(CCl)c1ccccc1Nc1ccc(-c2cccs2)cc1` [Compound 7, 2-chloro-1-(2-((4-(thiophen-2-yl)phenyl)amino)phenyl)ethanone], the “inhibition of TEAD4.Yap1 interaction” value against TEAD4.Yap1 interaction [1] is given as “lack of TEAD4 inhibition”. At TEAD4, the “adduct with TEAD4” value was 100% and the “covalent adduct formation with TEAD4” value is “formed single adducts”.
The corresponding values for `O=C(CCl)c1ccccc1Nc1cccc(-c2cccs2)c1` [Compound 8, 2-chloro-1-(2-((3-(thiophen-2-yl)phenyl)amino)phenyl)ethanone] are “lack of TEAD4 inhibition”, 100% and “formed single adducts”.
`O=C(CF)c1ccccc1Nc1cccc(C(F)(F)F)c1` [Example 10, 2-fluoro-1-(2-((3-(trifluoromethyl)phenyl)amino)phenyl) ethanone]: the “inhibition of TEAD4.Yap1 interaction” value against TEAD4.Yap1 interaction [1] is listed as “minimal inhibition”.
`O=C(CCl)Nc1ccccc1Nc1cccc(C(F)(F)F)c1` [Example 11, 2-chloro-N-(2-((3-(trifluoromethyl)phenyl)amino)phenyl) acetamide]: at TEAD4.Yap1 interaction [1] (as tested described herein), the “max (inhibition) in the EC50 assay” value turned out to be 50%. The EC50 at TEAD4.Yap1 interaction [1] (setting [4]) is 11.7 µM.
The corresponding values for `C=CC(=O)Nc1ccccc1Nc1cccc(C(F)(F)F)c1` [Example 12] are 23% and 13.7 µM.
As to `Cn1nnc2c(C(N)=O)ncn2c1=O` [Temozolomide, temozolomide, reference compound], the EC50 in test [3] is 244 ± 24 µM.
Regarding `NC(=O)CI` [iodoacetamide, reference compound], on TEAD4.Yap1 interaction [1], the “inhibition of TEAD4.Yap1 interaction” value was “unable to inhibit”. The “modification of TEAD4 Cys367Ser mutant” value on TEAD4 Cys367Ser mutant is reported as “no modification of the protein, except for a small adduct that was detected only at 200 μM”. Further, the “adduct formation with TEAD4” value at TEAD4 (5 μM TEAD4, 12.5, 50, 200 μM at 4° C., after 6 h) is recorded as “modified by a single adduct”.
